Test results reported in patent publication US11767286B2, “Phenylpropionate compound, preparation method for same, and applications thereof” (SUZHOU PHARMAVAN CO., LTD, priority 2017, dated 2023).

Tested on: SD rat model of focal ischemia-reperfusion
Test: Pharmacodynamic (administration) time window in SD rat model of focal ischemia-reperfusion (MCAO)
Format: in vivo, SD rats
Details: for Score of Symptoms of Neurological Deficits: 48 h, modified Bederson 5-point scale; for Infarction area: evaluated after 48 h, mean ± standard error
Procedure: In this example, Compound A was measured for a pharmacodynamic time window by a method described below.
Trial method: A cerebral ischemia reperfusion model of middle cerebral artery occlusion (MCAO) was prepared by an internal carotid artery suture method. An animal was anesthetized with 10% chloral hydrate (3.6 mL/kg) and then fixed on an operating table in a supine position. Its skin was disinfected, and a midline incision was made on the neck. The right common carotid artery, external carotid artery, and internal carotid artery were separated, the vagus nerve was gently striped off, and the external carotid artery was ligated and cut. The common carotid artery was clamped at the proximal end. […] The nylon thread was advanced through the bifurcation of the common carotid artery into the internal carotid artery, and then was slowly inserted until there was slight resistance (about 20 mm from the bifurcation) to block all the blood supply to the middle cerebral artery. 2 h after cerebral ischemia, the nylon thread was gently pulled out to restore blood supply for reperfusion, and the neck skin was sutured and disinfected. The animal was put back in a cage and raised. During the modeling operation, animals with abnormal conditions due to anesthesia, surgery, etc. were excluded, and successfully modeled animals were randomly grouped. Schemes were set according to trial doses, and drug treatment was given 3 h, 4 h, and 5 h after cerebral ischemia-reperfusion. Death conditions were recorded every day after the surgery, and indicators were evaluated after 48 h. In the whole trial process, general conditions were observed, mainly including: death, coma, breathing, urine and feces traits, hair colors, mental status, vomiting and vomitus, bleeding, convulsion, spasm, etc. Abnormal animals due to unexpected factors were excluded. Finally, unblinding was conducted by a person who made blind trials.
Evaluated indicator: (1) Evaluation of symptoms of neurological deficits: The symptoms of neurological deficits were evaluated by using a modified Bederson 5-point scale. A single-blind method was used for evaluating the symptoms of neurological deficits in rats with brain trauma. That is, a trial designer marked animals in accordance with groups, and an experimenter who scored the symptoms of neurological deficits had no knowledge of how the animals were grouped. After scoring was completed, the scorer submitted scoring results for various marks to the designer, and the designer performed unblinding to obtain scores of animals in each trial group. (2) Measurement of cerebral infarction area: A method reported in the literature was used. An animal was anesthetized with 10% chloral hydrate and decapitated to collect brain. The olfactory bulb, cerebellum and lower brain stem were removed. Blood stains on the surface of the brain were rinsed with normal saline, the residual water stains on the surface were absorbed, and the brain was placed at −80° C. for 7 min. After the brain was taken out, a coronal section was immediately made at downwards and vertical to the sight intersection plane, and brain slices were made every 2 mm backwards. Brain slices were placed in a TTC (20 g/L) dye solution prepared with 0.9% normal saline, and incubated at 37° C. for 90 min. Normal brain tissues were stained deep red, and ischemic brain tissues were pale-white. After rinsed with normal saline, the brain sections were quickly arranged in order from front to back, the residual water stains on the surface were absorbed to dryness, and pictures were taken. Image analysis software was used for statistics on the pictures. Ischemic area (white region) on the right side and total area on the right side were delineated, and a percentage of the cerebral infarction area was calculated by the following formula: […]
Statistical analysis: Quantitative data is expressed as mean value±standard error. […]

[1] = drug given 3 h after reperfusion
[2] = drug given 4 h after reperfusion
[3] = drug given 5 h after reperfusion

## COc1cc(CCC(=O)O[C@H]2C[C@H]3CC[C@]2(C)C3(C)C)cc(F)c1O [Compound A]
After ischemia (2 h ischemia then reperfusion)
  treatment time window: not less than 6 h
[1]
  Score of Symptoms of Neurological Deficits: 2.04 ± 0.12
  Infarction area: 23.56 ± 2.86 %
[2]
  Score of Symptoms of Neurological Deficits: 2.13 ± 0.14
  Infarction area: 24.54 ± 2.53 %
[3]
  Score of Symptoms of Neurological Deficits: 2.42 ± 0.17
  Infarction area: 32.43 ± 2.13%
